Measured values from ChEMBL document CHEMBL1122198, “Synthesis and dopamine receptor binding of exo- and endo-2-amino-6,7-dihydroxybenzonorbornene, rigid analogues of 2-amino-6,7-dihydroxytetrahydronaphthalene” (J Med Chem, 1982).

Target: Dopamine receptor (Bos taurus, UniProt Q95136+P20288)
Assay: Evaluated for the inhibition of binding of [3H]DA (dopamine) to dopamine receptor in calf striatal homogenate

With `NC1CCc2cc(O)c(O)cc2C1` (stereo unspecified) the IC50 was 6 nM.
